Reference: patent US6139538A, “Iontophoretic agent delivery to the female reproductive tract” (Iotek, Inc., priority 1997, dated 2000)
Several values for one entry are separate records, joined by “and”; a condition that tells them apart may be missing. Equal values may be shown once. Read-outs that look alike come from different tables or passages of the source.

Conditions: 20 minutes
[1] = Experiment #1, active (A1, A2, A3): 4% lidocaine solution, 1 mA
[2] = Experiment #1, passive (P1, P2, P3): 4% lidocaine solution, no current
[3] = Experiment #2, active (A1, A2, A3): 4% lidocaine solution, 1 mA

Method: Two identical experiments compared iontophoretic delivery of an anesthetic into the uterine wall with passive delivery of the anesthetic into the uterine wall. Each experiment was conducted using segments of porcine uteri. In the first experiment, there were three trials of iontophoretic delivery using fresh segments of porcine uteri from the first pig and three trials of passive delivery using fresh segments of porcine uteri from the first pig. This procedure was repeated in the second experiment using segments of porcine uteri from the second pig. The weight of the pig for the first experiment was 110 lbs., and the weight of the pig for the second experiment was 120 lbs.
When running each trial for both the first and second experiments, the segment of porcine uterus was placed between two half diffusion cells, a donor cell and a receptor cell. […] The receptor cell was filled with isotonic saline. […] The tissue samples were analyzed using high pressure liquid chromatography (HPLC).
For the active delivery trials in each experiment, a donor or delivery electrode (anode) of Ag was placed in the donor cell and a receptor or return electrode (cathode) of AgCl was placed in the receptor cell. A 1 mA current was then conducted between the donor and receptor electrodes for 20 minutes. For the passive delivery trials in each experiment, the segments of porcine uteri were left in the diffusion cell opening between the donor solution and the receptor solution for 20 minutes.

Compound: CCN(CC)CC(=O)Nc1c(C)cccc1C [lidocaine]
- Total μg in tissue [1]: 604.6 µg and 600.2 µg and 494.6 µg
- μg/mL of lidocaine [1]: 120.9 µg/mL and 120.0 µg/mL and 98.9 µg/mL
- Total μg in tissue [2]: 131.8 µg and 95.5 µg and 172.1 µg
- μg/mL of lidocaine [2]: 26.4 µg/mL and 19.1 µg/mL and 34.4 µg/mL
- Total μg/g in tissue [3]: 702.3 µg/g and 808.2 µg/g and 781.1 µg/g
- μg/mL of lidocaine [3]: 140.5 µg/mL and 161.6 µg/mL and 156.2 µg/mL
